The numbers were not newly measured in patent publication US20040019101A1, “Methods of treating gastrointestinary and genitourinary pain disorders” (priority 2002, published 2004), which cites them from elsewhere.

One series has as its system irritable bowel syndrome. The following applies: in vivo.
In series [1] the test system is monoamine neurotransmitter uptake.
Another series concerns dopamine reuptake. As to conditions: compared with serotonin and norepinephrine uptake.
The subject of another series is histaminergic receptors. As to conditions: in vitro.
The subject of the next series is adrenergic receptors. The following applies: in vitro.
The subject of the next series is orocecal transit. The following applies: healthy subjects or IBS patients.

In the case of `CN(C)CCC=C1c2ccccc2COc2ccccc21` [doxepin], in the series on irritable bowel syndrome, the “efficacy in treatment of irritable bowel syndrome” value (“efficacy in treatment” for short) is on record as “efficacious”.
For `COc1ccc(C(CN(C)C)C2(O)CCCCC2)cc1` (centres unmarked) [venlafaxine, 1-[2-(dimethylamino)-1-(4-methoxyphenyl)ethyl] cyclohexanol], in series [1], the “inhibition of monoamine neurotransmitter uptake” value is “potent inhibitors”. Besides, the “inhibition of norepinephrine uptake” value in the series on norepinephrine uptake is “potent inhibition”. Moreover, the “inhibition of dopamine reuptake” value in the series on dopamine reuptake is “To a lesser degree”. Besides, the “inhibitory activity on monoamine oxidase” value in the series with monoamine oxidase is “no inhibitory activity”. Besides, the “affinity for histaminergic receptors” value in the series with histaminergic receptors is given as “virtually no affinity”. The “affinity for adrenergic receptors” value in the series on adrenergic receptors was “virtually no affinity”.
Turning to `CN(C)CCC=C1c2ccccc2CCc2ccccc21` [amytriptiline], the “efficacy in treatment” value with irritable bowel syndrome is “efficacious”.
As for `CN(C)CCCN1c2ccccc2CCc2ccccc21` [imipramine], the “efficacy in treatment” value with irritable bowel syndrome is given as “efficacious”. Further, the “effect on orocecal transit” value in the series on orocecal transit is on record as “prolong orocecal transit”.
On to `CN(C)CC(c1ccc(O)cc1)C1(O)CCCCC1` (centres unmarked) [O-desmethyl venlafaxine, 1-[(2-dimethylamino)-1-(4-hydoxyphenyl)ethyl]cyclohexanol], for which the “inhibition of monoamine neurotransmitter uptake” value in series [1] is recorded as “potent inhibitors”.
